Experimental data: patent publication US20250032580A1, “USE OF ADNF POLYPEPTIDES IN THERAPY” (RAMOT AT TEL-AVIV UNIVERSITY LTD., priority 2021, published 2025)

Experiments:
Assay type in all cases: cell-based, mouse
[1] = tested on: differentiated N1E-115 cells; experiment: FRAP of mCherry-Tau (Tau-MT interaction)
Experimental: (§1) Cell culture—Mouse neuroblastoma NIE-115 cells were maintained in Dulbecco's modified Eagle's medium, 10% fetal bovine serum, 2 mM glutamine and 100 U ml—1 penicillin, […] ml—1 streptomycin (Biological Industries, Beit Haemek, Israel). The cells were incubated in 95% air/5% CO2 in a humidified incubator at 37° C.
(§2) Cell differentiation and co-transfection of overexpression plasmids—Cultured NIE-115 cells were plated on 35 mm dishes (81156, 60μ-Dish, Ibidi, Martinsried, Germany) at a concentration of 1.25×10^4 cells per dish and then were differentiated with reduced fetal bovine serum (2%) and DMSO (1.25%) containing medium for 5 days before transfection. 48 hrs before experiments N1E-115 cells were co-transfected with 1 μg EB3-RFP or mCherry-Tau (3R) plasmid with or without 2 μg of plasmids, coding to GFP conjugated to full-length human ADNP, or ADNP carried mutations. 1:3 ratios between total amount of transfected DNA and transfection reagent were used according to manufacture guidance (Lipofectamine2000, Thermo Fisher Scientific, Waltham, MA, USA) in all subsequent experiments.
Fluorescence recovery after photobleaching (FRAP)—Differentiated NIE-115 cells were transfected with mCherry-Tau with or without GFP-conjugated to full-length ADNP or mutated ADNP, and imaged 48 hrs after transfection. An ROI for photobleaching was drowned in the proximal cell branches. mCherry-Tau was bleached with a […], and fluorescence recovery was collected within wavelengths of 610-650 nm. 80 images were taken every 0.74 sec immediately after bleaching. After FRAP imaging all samples were also treated with NAP in final concentrations of 10^−12 M, and after 4 hrs time-lapse imaging was done again under the same conditions. FRAP imaging for assessment difference between NAP and SKIP (SEQ ID NO: 21) activity was performed after an hour of ZnCl2 treatment (400 μM final concentration; Sigma, Rehovot, Israel) with or without NAP/SKIP (10^−12 M final concentration). Fluorescence signals were quantified with Fiji, obtained data were normalized with easyFRAP [82, 83] and FRAP recovery curves were fitted by a one-phase exponential association function by GraphPad Prism6 (GraphPad Software, Inc., La Jolla, CA, USA) while samples with R^2<0.9 were excluded.
Next, the effect of full-length/truncated ADNP forms with or without NAP treatment on Tau-MT interaction was examined by fluorescence recovery after photobleaching (FRAP) (FIGS. 8A-C). FRAP was performed with mCherry-tagged Tau protein (FIG. 8A). […] Therefore, the immobile mCherry-Tau fraction reflects the rate of Tau association with MTs.

[2] = tested on: differentiated N1E-115 cells; experiment: Live imaging of EB3 comet-like structures (MT dynamics); conditions: 10^−12 M, 4 hrs
Experimental: as §1, §2
Live Imaging—48 hrs after transfection, differentiated NIE-115 cells (expressing EB3-RFP with or without GFP-conjugated to full-length ADNP or mutated ADNP) were incubated at 37° C. with a 5% CO2/95% air mixture in a thermostatic chamber placed on the stage of a Leica TCS SP5 confocal microscope (objective 100× (PL Apo) oil immersion, NA 1.4). Time-lapse images were automatically captured 3 sec during 1 min, using the Leica LAS AF software. After imaging all samples were also treated with NAP (SEQ ID NO: 2) or SKIP (SEQ ID NO: 21) in final concentrations of 10^−12 M, and after 4 hrs time-lapse imaging was done again under the same conditions. Data was collected and analyzed by Imaris software.
To evaluate the effect of ADNP truncated proteins on MT dynamics time-lapse imaging of EB3 comet-like structures formed by RFP-tagged EB3 proteins that bind to MT plus-ends was performed. Two parameters of EB3 activity were used to assess MT dynamics—track length and track speed of EB3 comets, which reflect the length of freshly growing MTs and the speed of MT assembly, respectively. Furthermore, the present inventors aimed to determine whether NAP (10^−12 M for 4 hrs) could prevent the deleterious effect of ADNP mutations.

[3] = tested on: N1E-115 cells; experiment: Polymerized vs. soluble tubulin assay; conditions: zinc 400 μM, 4 h, peptide 10^−12 M
Experimental: Polymerized vs. soluble tubulin assay—To quantify tubulin polymerization and Tau-MT association, a simple assay was performed as previously described. The cells grown to confluence in six-well plates were washed with MT buffer (80 mM PIPES pH 6.8, 1 mM MgCl^2, 2 mM EGTA, 5% Glycerol) and lysed at room temperature for 5 min through centrifugation (300 g), with 150 μl of MT buffer with 0.5% Triton X-100 to extract soluble (cytosolic) tubulin (S). The pelleted cells were rinsed once again with an equal volume of modified RIPA lysis buffer (50 mM Tris-HCL pH 7.4, 150 mM NaCl, 2 mM EGTA, 1% Triton X-100, 0.1% SDS, 0.1% sodium Deoxycholate) to collect the polymerized (cytoskeletal) tubulin (P). The cytosolic and cytoskeletal fractions were each mixed with sample buffer and heated at 95° C. for 5 min. An equal volume of each fraction was analyzed by immunoblotting with Tau, tubulin and actin antibodies, and the results following ECL development were quantified by densitometry (GelQuant.NET software provided by biochemlabsolutions(dot)com).
It is known that in the presence of extracellular zinc NAP protects MT against degradation by promoting Tau binding to the MT shaft. Polymerized vs. soluble tubulin assay was effected to compare protective activities of NAP and SKIP against MT degradation and Tau-MT dissociation (FIGS. 11F-G). After treatments with zinc (400 μM, 4 h) with and without NAP or SKIP (10^−12 M, 4 h) the cellular-tubulin pool was separated into polymerized and soluble tubulin fractions. The amount of Tau, tubulin, and actin was identified by immunoblotting (FIG. 11F), followed by densitometric quantification (FIG. 11G).

Compound	Tau immobile fraction in comparison to non-treated control ([1]; 400 μM, 1 h)	Difference between effects of NAP and SKIP on EB3 track length and speed [2]	EB3 track length and speed compared to non-treated control ([2]; no ADNP plasmid)	Efficacy in terms of MT-Tau interactions, as compared with NAP ([1]; summary of results)	Tau immobile fraction under zinc ([1]; zinc 400 μM, 1 h, together with peptide 10^−12 M)	Protection against Tau dissociation from MTs [3]	Protection of polymerized tubulin against zinc-induced decay [3]
[Cl-].[Cl-].[Zn+2] [zinc, ZnCl2, reference compound]	significantly attenuated						
SKIP		no significant differences	increased EB3 track length and speed	reduced efficacy	prevented zinc adverse effect	only NAP exhibited protection	protected against zinc-induced decay
